Results: US20050042747A1, “Hivgp120-induced bob/gpr15 activation” (priority 2001, published 2005)
Entries after “also recorded” stand apart in the source; their conditions may differ.

Columns and labels:
[1] = tested on: gp120-induced calcium signaling in HT-29 cells; test: Inhibition of gp120-induced calcium signaling in HT-29 cells; type: cell-based, human; conditions: pretreatment
Method: (§1) Calcium studies were done on HT-29 cells and Ghost (3) cells loaded with Fluo 4. The cells were placed in Locke's buffer containing 5 μg/ml Fluo 4 AM ester (Molecular Probes) for 20 to 30 minutes, then in Locke's buffer for an additional 30 minutes before testing. Various concentrations of gp120IIIB (X4 trophic), gp120CM235 (R5 trophic), gp120mN (X4 trophic), gp12093TH975 (nonsyncytium-inducing primary isolate from an asymptomatic subject, trophism undetermined but likely R5), and gp120SF2 (X4R5 trophic), ranging from 10 nM to less than 1 pM, were added in Locke's buffer.^6 The gp120 proteins were obtained from the AIDS Research Reagent Referral Program. Some HT-29 cells were given one of the following pretreatments: 50 μg/ml anti-Bob37 overnight, 1 μg/ml pertussis toxin overnight, or 4.6 μg/ml U73122 for one hour. With the HT-29 cells only, similar tests were also performed with SDF-1, MIP-1α, MIP-1β, and RANTES rather than gp120. The cells were visualized every 4 seconds in a confocal microscope, using 488 nm argon laser excitation and detection filters appropriate for fluorescein-like dyes.
Blocking antibody experiments were done with HT-29 cells (monitoring calcium flux, microtubule loss, or transepithelial resistance), with Ghost (3) Bob cells (monitoring calcium flux) and peripheral blood mononuclear cells (monitoring calcium flux and HIV infection). Specifics of these protocols and the specific results are given herein. […] Antibody concentrations of 40 to 50 micrograms/ml overnight were needed for maximal effect.
(§2) For the first two or three days after plating, gp120 induces an immediate (within 4 seconds) calcium flux in undifferentiated HT-29 cells. The cells had previously been loaded with Fluo-4 AM ester (Molecular Probes, Eugene Oreg.) 5 micrograms/ml in the presence of Pleuronic F-127 0.02% in Locke's buffer for 30 minutes, then incubated at room temperature for an additional 30 minutes. Gp120IIIB was added while the cells were on an inverted confocal microscope using a 488 nm argon laser, with detection filters suitable for fluorescein-like dyes. […]

[2] = Interaction of synthetic Bob peptides with GalCer monolayer (surface pressure); type: binding, human; conditions: initial surface pressure 10 mN/m; at equilibrium; mean of three experiments ±SD
Method: Artificial membranes composed entirely of galactosyl ceramide with an alpha hydroxylated fatty acid were made. The surface pressure was measured with a microtensimeter (Kibron Inc., Finland) designed for the study of protein-lipid interactions. The peptides used for immunization were added to the subphase, and the surface pressure was continuously measured until equilibrium was reached. The increase in pressure was expressed in mN/m.
A monolayer of GalCer was prepared at the air-water interface at an initial surface pressure of 10 mN/m. The maximal surface surface pressure increase (Δπmax) reached at the equilibrium is indicated. The values are the mean of three separate experiments (±SD).
(§3) Galactosylceramide with an α-hydroxylated fatty acid (referred to as GalCer throughout this study) was either prepared from bovine brain (Sigma) or purified from HT-29-D4 membrane rafts (Fantini et al., 2000a). The surface pressure was measured with a microtensiometer (Kibron Inc., Finland) specially designed for studying protein-lipid interactions (Fantini et al., 2000a). The experiments were carried at 25° C. out in a laboratory equipped with a filtered air supply. A solution of GalCer was prepared extemporaneously in hexane:chloroform:methanol, 11:5:4 (v:v:v) at a concentration of 1 mg/ml. The lipid was carefully spread onto the meniscus of a pure water subphase (800 μl). The proteic ligand (GPR15/Bob peptides or HIV-1 gp120) was injected into the subphase with a 10 μl Hamilton syringe. The surface pressure was continuously measured as a function of time until reaching equilibrium corresponding to the maximal surface presure increase (Δπmax) expressed in mN/m.

[3] = tested on: HT-29 cells; test: Calcium signaling in HT-29 cells (Fluo 4, confocal microscope); type: cell-based, human
Method: HT-29 cells (from ATCC) were grown in DMEM-F12 with 10% bovine calf serum, and were used 24-48 hours after plating. The Ghost (3) cells were obtained from the AIDS Research and Reference Reagent Program, and were grown DMEM with 10% bovine calf serum supplemented with 500 μg/ml G418, 100 μg/ml hygromycin, and 1 μg/ml puromycin.^27 These cells were used 24 to 96 hours after plating.
as §1, §2

[4] = tested on: HT-29-D4 cells; test: Transepithelial resistance (TEER) of differentiated HT-29-D4 cells; type: cell-based, human; conditions: electrophysiological medium
[5] = GalCer-gp120 interactions at the air-water interface (surface pressure); type: binding; conditions: gp120 5 nM in aqueous subphase
Method: A monomolecular film of GalCer was prepared at the air-water interface and gp120 purified from either IIIB (full squares), SEN (open circles) or 89.6 (full circles) isolates was added in the aqueous subphase at a concentration of 5 nM. The kinetics of the surface pressure increase induced by the viral glycoproteins are shown.
as §3
In a recent study, it was shown that the interaction between GalCer and gp120 purified from HIV-1(IIIB) was very efficient, whereas gp120s from 89.6 and SEN isolates interacted very weakly (Hammache et al., 1998). The kinetics of this interaction are an important physicochemical parameter allowing the direct comparison of GalCer recognition by various gp120s. In the experiment shown in FIG. 11, gp120 purified from IIIB, SEN, or 89.6 was injected underneath a monomolecular film of GalCer at the air-water interface. The GalCer film mimics the topology of a GalCer raft as it is organized in the external leaflet of the plasma membrane. For this reason, the Langmuir film balance technique is one of the most sensitive and reliable for studying protein-glycolipid interactions (Maggio et al., 1994). […] The surface increase indicates a condensing effect of the gp120 on the lipidic film due to its interaction with GalCer molecules (Hammache et al., 1998). […] At this time however, the level of interaction indicated by the absolute increase of the surface pressure was identical to the one of gp120(IIIB). […] The GalCer-binding capacity of gp120(SEN) was reevaluated and shown to occur much more slowly, but not less efficiently, than of gp120(IIIB).

[6] = target: T1, CCR5 (Homo sapiens, UniProt P51681); test: gp120-induced calcium flux, Ghost (3) cells transfected with CCR5; type: cell-based; design: key: — = no calcium flux seen at any dilution tested; conditions: Ghost (3) CCR5 cells
T1 construct: host or cells: Ghost (3) cells (human osteosarcoma, CD4+)
T1 sequence (P51681 whole entry): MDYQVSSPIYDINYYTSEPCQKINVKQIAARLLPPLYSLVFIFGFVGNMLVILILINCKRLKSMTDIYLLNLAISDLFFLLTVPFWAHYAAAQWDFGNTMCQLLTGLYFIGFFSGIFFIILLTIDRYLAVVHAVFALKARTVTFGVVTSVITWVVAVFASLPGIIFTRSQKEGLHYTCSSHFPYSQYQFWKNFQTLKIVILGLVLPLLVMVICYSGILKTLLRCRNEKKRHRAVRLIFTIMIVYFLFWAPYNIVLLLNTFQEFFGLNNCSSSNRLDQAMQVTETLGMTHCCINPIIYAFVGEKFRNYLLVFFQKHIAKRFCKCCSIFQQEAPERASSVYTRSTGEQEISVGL
Method: as §1
(§4) Human osteosarcoma cell lines were transfected to express CD4, one or another of the HIV coreceptors, and a Green Fluorescent Protein reporter for active HIV infection, for the purpose of testing which of the known coreceptors was used to induce HIV infection by a given HIV strain (Morner A. J Virol 73:2343-9, 1999 and Deng K Nature 388:296-300, 1997). These cells were obtained from the AIDS Research and Reference Reagent Program, courtesy of Dr. Vineet KewalRamani and Dr. Dan Littman. These cells were grown in DMEM with 10% bovine calf serum supplemented with 0.5 mg/ml G418, 0.1 mg/ml hygromycin, and 1 microgram/ml puromycin, and were used at low passage number (less than 10). We have discovered that these cell lines are also activated by gp120 of certain viral strains, inducing a calcium flux in these cells.
(§5) Within 4 days of plating, coreceptor-transfected Ghost (3) cells (as well as the parent cell line not transfected to express any HIV coreceptors as a control) were put in Locke's medium, then treated with Fluo-4 (5 micrograms/ml for 30 minutes at 37° C.). After an additional 30 minute incubation in Locke's buffer at room temperature, the cells were examined in a confocal microscope while gp120 of various viral strains was added, and the cells were examined at 4 second intervals to look for a gp120-induced calcium flux. The results are given in the following table, expressed as the minimal concentration of gp120 resulting in a significant calcium flux. “−” means that no reproducible calcium flux was observed. “ND” means that the gp120 of that viral strain was not tested with the stated coreceptor. […]

[7] = target: T2, Bob (Homo sapiens, UniProt P49685); test: gp120-induced calcium flux, Ghost (3) cells transfected with Bob (Fluo-4); type: cell-based; design: key to minimal concentration of gp120 resulting in a significant calcium flux: — = no calcium flux seen at any dilution tested
T2 construct: host or cells: Ghost (3) cells (human osteosarcoma, also transfected with CD4 and a GFP reporter)
T2 sequence (P49685 1-360): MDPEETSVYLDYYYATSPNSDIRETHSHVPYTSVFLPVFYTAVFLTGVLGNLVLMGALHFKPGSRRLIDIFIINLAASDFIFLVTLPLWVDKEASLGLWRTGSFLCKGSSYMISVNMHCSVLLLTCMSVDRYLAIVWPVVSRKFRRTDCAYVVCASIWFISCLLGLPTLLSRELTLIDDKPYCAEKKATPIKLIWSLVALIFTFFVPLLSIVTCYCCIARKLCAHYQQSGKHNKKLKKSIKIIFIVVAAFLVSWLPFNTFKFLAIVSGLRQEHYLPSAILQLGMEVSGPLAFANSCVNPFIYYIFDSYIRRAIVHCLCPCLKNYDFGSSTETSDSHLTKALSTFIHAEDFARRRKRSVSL
Method: as §1, §4
Within 4 days of plating, coreceptor-transfected Ghost (3) cells (as well as the parent cell line not transfected to express any HIV coreceptors as a control) were put in Locke's medium, then treated with Fluo-4 (5 micrograms/ml for 30 minutes at 37° C.). After an additional 30 minute incubation in Locke's buffer at room temperature, the cells were examined in a confocal microscope while gp120 of various viral strains was added, and the cells were examined at 4 second intervals to look for a gp120-induced calcium flux. The results are given in the following table, expressed as the minimal concentration of gp120 resulting in a significant calcium flux. “−” means that no reproducible calcium flux was observed. “ND” means that the gp120 of that viral strain was not tested with the stated coreceptor.
These cells were treated with serial dilutions (100 or 250 nM to at least 1 pM, or even less if calcium fluxes were noted) of gp120. Gp120s from each of four HIV-1 strains: IIIB, CM235, SF2, and […] were used. Listed is the greatest dilution which induced a significant, reproducible calcium flux. The parental line is known to express CXCR4 at very low levels. Those results indicated by an asterisk are thought to represent this artifact.

[8] = target: T3, CXCR4 (Homo sapiens, UniProt P61073); test: gp120-induced calcium flux, Ghost (3) cells transfected with CXCR4; type: cell-based; design: key: — = no calcium flux seen at any dilution tested; conditions: Ghost (3) CXCR4 cells
T3 construct: host or cells: Ghost (3) cells (human osteosarcoma, CD4+)
T3 sequence (P61073 whole entry): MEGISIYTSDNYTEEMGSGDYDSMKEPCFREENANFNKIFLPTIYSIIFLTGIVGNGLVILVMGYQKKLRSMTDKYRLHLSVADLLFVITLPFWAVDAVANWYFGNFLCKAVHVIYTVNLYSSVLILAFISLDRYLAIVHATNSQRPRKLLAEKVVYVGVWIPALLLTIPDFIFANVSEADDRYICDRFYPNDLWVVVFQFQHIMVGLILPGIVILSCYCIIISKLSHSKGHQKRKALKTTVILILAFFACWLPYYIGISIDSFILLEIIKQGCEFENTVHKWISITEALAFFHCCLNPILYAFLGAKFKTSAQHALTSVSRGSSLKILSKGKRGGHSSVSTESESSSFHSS
Method: as §1, §4, §5

[9] = tested on: Ghost (3) parental cell line; test: gp120-induced calcium flux, Ghost (3) parental cell line; type: cell-based, human; design: key: — = no calcium flux seen at any dilution tested; conditions: Ghost (3) parental line
Method: as §1, §4, §5

[10] = tested on: peripheral blood mononuclear cells; test: gp120-induced calcium flux in peripheral blood mononuclear cells; type: cell-based, human; conditions: for inhibition of gp120IIIB-induced calcium flux, in words: pretreatment
Method: Normal human peripheral blood mononuclear cells were isolated by Ficoll gradient centrifugation, and loaded with the calcium sensitive dye Fluo-4. HIV gp120IIIB induced strong calcium fluxes in the range of 7 nM to 50 pM, and there was a weaker signal at 5 pM.
Experiments corresponding to those with HT-29 cells were done with peripheral blood mononuclear cells. These were isolated from the blood of a healthy, HIV-uninfected person by a Ficoll-Hypaque techique (Histopaque, Sigma), then loaded with Fluo-4 by a technique nearly identical to that used for HT-29 cells, except that Hank's buffer was used rather than Locke's, and the cells were centrifuged (2,000 g for 10 minutes) just before calcium flux measurements to improve adherence. Gp120-induced calcium fluxes were documented with as little as 5 pM gp120IIIB.

For `COc1ccc2c(c1)CC[C@@H]1[C@@H]2CC[C@]2(C)[C@@H](NCCCCCCN3C(=O)CCC3=O)CC[C@@H]12` [U73343], the “inhibition of gp120-induced calcium signaling, in words” value [1] was “no inhibitory effect and not”.
For “DKEASLGLWRTGSFLCK [P2, Bob peptide, first extracellular loop]”, the Δπ max [2] was 5.40 ± 1.52 mN/m.
“HAEDFARRRKRSVSL [P1, Bob peptide, internal C-ter domain]” gave a Δπ max [2] of 1.89 ± 0.85 mN/m.
Compound “KNYDFGSSTETSDSHLTK [P6, Bob peptide, internal C-ter domain]” has a Δπ max [2] of 2.67 ± 0.40 mN/m.
Compound “MDPEETSVYLDYYYATS [P3, Bob peptide, extracellular N-ter end]” has a Δπ max [2] of 2.26 ± 0.12 mN/m.
“RELTLIDDKPYCAEKKAT [P5, Bob peptide, second extracellular loop]” showed a Δπ max [2] of 6.86 ± 1.37 mN/m.
In the case of “SDF-1: natural ligand of CXCR4 [reference compound]”, the “calcium signaling in HT-29 cells, in words” value [3] is reported as “substantial calcium signal; also recorded: induced similar calcium signaling”.
Work on “SGLRQEHYLPSAILQ [P4, Bob peptide, third extracellular loop]” yielded a Δπ max [2] of 5.21 ± 1.06 mN/m.
For “gp120(89.6): gp120 purified from primary isolate HIV-1(89.6)”, the “TEER response, in words” value [4] was “not observed”, the “TEER response, in words” value ([4]; listed as gp120 from 89.6) was “totally inactive” and the “interaction with GalCer film, in words” value [5] was “very little association with GalCer”. For the same compound, the “maximal surface pressure increase relative to IIIB and SEN” value [5] was “less than 50%”.
With “gp120MN: gp120 of HIV strain MN (X4 trophic)” the “minimal concentration of gp120 resulting in a significant calcium flux” value [6] was “—”, the “minimal concentration of gp120 resulting in a significant calcium flux” value ([7]; Ghost (3) Bob cells, 100 or 250 nM to at least 1 pM) was “—” and the “Bob activation / calcium signals in Bob-transfected Ghost (3) cells, in words” value ([7]; listed as MN) was “do not activate Bob; also recorded: did not cause calcium signals”. For the same compound, the “minimal concentration of gp120 resulting in a significant calcium flux” value [8] was “—” and the “minimal concentration of gp120 resulting in a significant calcium flux” value [9] was “—”.
With heparin the “inhibition of gp120IIIB-induced calcium flux” value ([10]; 15 minute preincubation of gp120IIIB with 40 micrograms/ml at 0-4° C., 200 nM gp120IIIB) was 40 fold, the “inhibition of gp120IIIB-induced calcium flux, in words” value [10] was “Inhibition” and the “inhibition of gp120IIIB-induced calcium flux, in words” value ([10]; listed as sodium heparin) was “inhibited the calcium flux”.
